Measured values reported in ChEMBL document CHEMBL1201862, “PubChem BioAssay data set” (2004).
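Following 48 hours of exposure in 96-well plates, responses at five concentrations were used to interpolate endpoints linearly. GI50: concentration for 50% inhibition of growth.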 Active and inactive are the calls of the source. Cut-off read from the data, not from the text of the source: active = GI50 up to about 1.1 µM and inactive = higher.

Key:
Experiment in all cases: NCI-60 cell line screen, 48 h
KM-20L2 = system: KM-20L2
HOP-18 = system: HOP-18
M19-MEL = system: M19-MEL
SNB-78 = system: SNB-78
DLD-1 = system: DLD-1
LXFL 529 = system: LXFL 529
DMS-273 = system: DMS-273
XF498 = system: XF498
RXF 631 = system: RXF 631

| SMILES | GI50 (KM-20L2) | GI50 (HOP-18) | GI50 (M19-MEL) | GI50 (SNB-78) | GI50 (DLD-1) | GI50 (LXFL 529) | GI50 (DMS-273) | GI50 (XF498) | GI50 (RXF 631) |
| --- | --- | --- | --- | --- | --- | --- | --- | --- | --- |
| O=C(NC(Cc1ccccc1)C(=O)CCl)OCc1ccccc1 (configuration not stated) | 7.69 µM (inactive) | 11.7 µM (inactive) | 13.7 µM (inactive) | 24.8 µM (inactive) | 9.64 µM (inactive) | 3.6 µM (inactive) | 5.02 µM (inactive) | – | – |
| CC(=O)OC1CC2(O)C(CCC3(C)C(c4ccc(=O)oc4)CCC32O)C2(C)CCC(O)C=C12 (configuration not stated) | 0.0219 µM (active) | 0.0094 µM (active) | 0.0234 µM (active) | 0.00989 µM (active) | 0.0375 µM (active) | – | 0.005 µM (active) | 0.0381 µM (active) | – |
| O=C1CCC2(c3ccc(Cl)cc3)Nc3ccccc3N12 (configuration not stated) | > 100 µM (inactive) | 50.2 µM (inactive) | 69 µM (inactive) | > 100 µM (inactive) | 71 µM (inactive) | 47 µM (inactive) | – | 77.1 µM (inactive) | > 100 µM (inactive) |
| Cc1ccc(C(=O)Nc2ncn(C3CC(O)C(CO)O3)c(=O)n2)cc1 (configuration not stated) | – | > 68.2 µM (inactive) | > 100 µM (inactive) | > 65.5 µM (inactive) | > 100 µM (inactive) | – | > 100 µM (inactive) | > 100 µM (inactive) | – |
| CC(=O)NNc1nc(C)c(C(=O)NNC(=O)C(=O)Nc2c(C)cccc2C(C)(C)C)s1 | 83.4 µM (inactive) | – | 48 µM (inactive) | > 100 µM (inactive) | 61.8 µM (inactive) | 69.8 µM (inactive) | 47.1 µM (inactive) | > 100 µM (inactive) | – |
| CC(C(=O)OCc1ccccc1)N(Cc1ccccc1)Cc1ccccc1 (configuration not stated) | > 100 µM (inactive) | – | – | > 100 µM (inactive) | > 100 µM (inactive) | > 100 µM (inactive) | 57.9 µM (inactive) | 24 µM (inactive) | – |
| COC(OC)c1cc2c(cc1C=O)OCO2 | > 100 µM (inactive) | – | > 100 µM (inactive) | > 100 µM (inactive) | 34.9 µM (inactive) | – | > 100 µM (inactive) | – | – |
| CNS(=O)(=O)NN(C)S(=O)(=O)c1ccc(C)cc1 | > 100 µM (inactive) | – | > 100 µM (inactive) | – | > 100 µM (inactive) | – | – | – | – |
| CN(C)CCNC(=O)c1cccc2nc(-c3ccccc3)oc12 | 28.8 µM (inactive) | > 61.2 µM (inactive) | 33 µM (inactive) | > 72.6 µM (inactive) | 31.9 µM (inactive) | – | – | 34.3 µM (inactive) | – |
| COc1ccc(C(=O)Cc2cc(OC)ccc2OC)cc1 | > 100 µM (inactive) | > 100 µM (inactive) | > 100 µM (inactive) | 42.4 µM (inactive) | > 100 µM (inactive) | > 100 µM (inactive) | > 100 µM (inactive) | – | > 100 µM (inactive) |
| N#CCC(=O)N/N=C1/C(=O)N(c2cc(Cl)ccc2Cl)C(=O)C(=O)C1c1nc2ccccc2s1 (configuration not stated) | > 100 µM (inactive) | 72.9 µM (inactive) | 77.1 µM (inactive) | > 100 µM (inactive) | > 100 µM (inactive) | > 100 µM (inactive) | > 100 µM (inactive) | – | 55.3 µM (inactive) |
| C/C(CCN(C)C)=N\OC(=O)c1ccccc1 | > 100 µM (inactive) | 1.66 µM (inactive) | > 100 µM (inactive) | > 100 µM (inactive) | > 100 µM (inactive) | > 100 µM (inactive) | > 100 µM (inactive) | – | – |
| COc1cccc(C2SCc3nc4ccccc4n32)c1 (configuration not stated) | – | > 100 µM (inactive) | 46.6 µM (inactive) | > 100 µM (inactive) | 88.1 µM (inactive) | – | 39.1 µM (inactive) | – | – |
| CCC(C)n1c(C)nc2c1C(=O)c1ccccc1C2=O (configuration not stated) | 43.7 µM (inactive) | – | 18.2 µM (inactive) | > 100 µM (inactive) | 27.2 µM (inactive) | 33.4 µM (inactive) | 34.2 µM (inactive) | 44.8 µM (inactive) | – |
| OC(Cn1cncn1)(Cn1cncn1)c1ccc(Cl)cc1Cl | > 100 µM (inactive) | > 100 µM (inactive) | > 100 µM (inactive) | > 100 µM (inactive) | > 100 µM (inactive) | > 100 µM (inactive) | > 100 µM (inactive) | – | – |
| CC[C@@]1(O)C[C@H](OC2CC(N(C)C)C(OC3CC(O)C(OC4CC(O)C(O)C(C)O4)C(C)O3)C(C)O2)c2c(cc3c(c2O)C(=O)c2c(O)ccc(O)c2C3=O)[C@H]1C(=O)OC (some centres not stated) | 0.108 µM (active) | 0.136 µM (active) | 0.0121 µM (active) | 0.0776 µM (active) | 0.0328 µM (active) | – | 0.0108 µM (active) | 0.0189 µM (active) | – |
| CC1=C(Cl)C=CP(=O)(OC(C)C)C1 (configuration not stated) | > 100 µM (inactive) | > 100 µM (inactive) | > 100 µM (inactive) | > 100 µM (inactive) | 35.7 µM (inactive) | > 100 µM (inactive) | – | – | 33.1 µM (inactive) |
| COc1ccc(C2C(Cl)C(=O)N2NC(=O)Cc2ccccc2)cc1OC (configuration not stated) | > 100 µM (inactive) | > 100 µM (inactive) | > 100 µM (inactive) | > 100 µM (inactive) | > 100 µM (inactive) | – | > 100 µM (inactive) | > 100 µM (inactive) | – |
| CCOc1cc(/C=C/C=C/c2ccc(N(C)C)cc2)[s+]c2ccccc12 | 71 µM (inactive) | 99.1 µM (inactive) | 26.2 µM (inactive) | 25.5 µM (inactive) | 23.9 µM (inactive) | 12.3 µM (inactive) | 9.31 µM (inactive) | 20.8 µM (inactive) | 33 µM (inactive) |
| Cc1coc2c1C(=O)C(=O)c1ccccc1-2 | 3.36 µM (inactive) | < 0.01 µM (active) | – | 1.73 µM (inactive) | 1.98 µM (inactive) | 0.403 µM (active) | 1.54 µM (inactive) | – | – |
| CCCCCOc1ccc(/C=N\c2ccc(-c3ccc(/N=C\c4ccc(OCCCCC)cc4)c(OC)c3)cc2OC)cc1 | > 100 µM (inactive) | 24.3 µM (inactive) | > 100 µM (inactive) | > 84.9 µM (inactive) | > 100 µM (inactive) | – | > 100 µM (inactive) | > 100 µM (inactive) | – |
| CC(=O)Nc1ccc(/C=C/c2ccc(NC(=O)Nc3ccc(/C=C/c4ccc(NC(C)=O)cc4S(=O)(=O)O)c(S(=O)(=O)O)c3)cc2S(=O)(=O)O)c(S(=O)(=O)O)c1 | 77.8 µM (inactive) | > 95.5 µM (inactive) | > 100 µM (inactive) | > 100 µM (inactive) | > 100 µM (inactive) | – | > 87.9 µM (inactive) | > 48 µM (inactive) | – |
| Cc1nc2c(=O)[nH]c(=O)n(C)c2[nH]c1=O.c1ccncc1 | > 100 µM (inactive) | – | > 100 µM (inactive) | – | > 100 µM (inactive) | > 100 µM (inactive) | > 100 µM (inactive) | – | – |
| O=c1c2cccnc2ncn1CCCN1CCCCC1 | – | – | > 100 µM (inactive) | > 100 µM (inactive) | > 100 µM (inactive) | – | > 100 µM (inactive) | > 100 µM (inactive) | – |
| CN1CN(C(=O)N2CN(C)C(=O)N(C)C2)CN(C)C1=O | > 100 µM (inactive) | > 100 µM (inactive) | > 100 µM (inactive) | > 100 µM (inactive) | > 100 µM (inactive) | > 100 µM (inactive) | – | > 100 µM (inactive) | – |
| COc1cc2c(cc1OC)[C@@H](C(O)c1ccccc1)NCC2 (some centres not stated) | > 100 µM (inactive) | – | > 100 µM (inactive) | > 100 µM (inactive) | > 100 µM (inactive) | > 100 µM (inactive) | > 100 µM (inactive) | > 100 µM (inactive) | > 100 µM (inactive) |
